According to US8802700B2 (Vertex Pharmaceuticals Incorporated, priority 2010, dated 2014):
pEC50: −log10 of the molar value.

target: T1, ΔF508-CFTR (Homo sapiens, UniProt P13569, DEL508-508); assay: Membrane potential optical assay (FRET voltage-sensor dyes, VIPR), identification of potentiator compounds; type: cell-based; conditions: Table 3; assay not given
T1 construct: expressed in transfected cells
In short: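 Potentiator screen measured membrane potential via FRET between CC2-DMPE donor and DiSBAC2(3), read on VIPR II. Compound went in with the first addition of chloride-free gluconate bath; cells were ΔF508-CFTR-expressing NIH3T3 mouse fibroblasts, temperature-corrected at 27 °C for 24 h.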

T1 sequence (P13569 with tags, fused parts or gaps DEL508-508): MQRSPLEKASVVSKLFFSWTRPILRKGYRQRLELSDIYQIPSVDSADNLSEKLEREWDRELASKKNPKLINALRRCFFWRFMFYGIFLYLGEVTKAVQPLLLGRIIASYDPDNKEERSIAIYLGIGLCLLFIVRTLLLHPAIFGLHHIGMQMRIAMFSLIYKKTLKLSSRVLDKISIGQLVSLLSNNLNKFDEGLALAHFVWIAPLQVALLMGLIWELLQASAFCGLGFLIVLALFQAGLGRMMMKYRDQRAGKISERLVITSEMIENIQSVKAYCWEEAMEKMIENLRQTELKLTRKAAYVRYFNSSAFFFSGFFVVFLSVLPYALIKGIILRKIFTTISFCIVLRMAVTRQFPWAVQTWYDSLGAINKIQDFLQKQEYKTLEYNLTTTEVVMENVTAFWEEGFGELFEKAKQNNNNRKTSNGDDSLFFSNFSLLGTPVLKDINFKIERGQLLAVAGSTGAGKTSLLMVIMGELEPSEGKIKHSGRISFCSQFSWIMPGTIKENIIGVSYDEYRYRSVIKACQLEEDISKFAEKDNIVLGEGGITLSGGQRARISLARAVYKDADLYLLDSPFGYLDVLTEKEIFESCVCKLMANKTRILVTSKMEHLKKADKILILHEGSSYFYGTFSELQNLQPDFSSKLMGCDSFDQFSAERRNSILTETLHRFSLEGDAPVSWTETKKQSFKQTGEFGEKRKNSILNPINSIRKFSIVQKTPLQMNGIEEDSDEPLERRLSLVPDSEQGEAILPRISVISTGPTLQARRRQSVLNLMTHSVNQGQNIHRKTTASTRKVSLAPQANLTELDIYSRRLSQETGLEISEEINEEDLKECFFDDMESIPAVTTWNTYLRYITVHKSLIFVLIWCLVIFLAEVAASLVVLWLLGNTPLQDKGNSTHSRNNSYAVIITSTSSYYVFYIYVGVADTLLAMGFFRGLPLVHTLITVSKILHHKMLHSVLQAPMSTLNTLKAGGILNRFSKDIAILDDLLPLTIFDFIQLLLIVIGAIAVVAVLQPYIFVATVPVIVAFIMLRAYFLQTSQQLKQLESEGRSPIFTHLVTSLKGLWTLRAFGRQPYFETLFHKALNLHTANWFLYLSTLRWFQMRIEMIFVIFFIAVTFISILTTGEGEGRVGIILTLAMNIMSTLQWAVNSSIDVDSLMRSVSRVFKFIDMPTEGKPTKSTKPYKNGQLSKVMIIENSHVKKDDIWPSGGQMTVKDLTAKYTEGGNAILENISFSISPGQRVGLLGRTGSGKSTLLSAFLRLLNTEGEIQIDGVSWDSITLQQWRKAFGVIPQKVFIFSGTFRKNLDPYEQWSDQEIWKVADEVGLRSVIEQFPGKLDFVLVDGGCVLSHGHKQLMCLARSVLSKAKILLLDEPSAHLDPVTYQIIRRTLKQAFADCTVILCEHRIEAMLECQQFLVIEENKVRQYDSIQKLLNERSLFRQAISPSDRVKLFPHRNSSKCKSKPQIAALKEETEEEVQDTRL

pEC50	Structure (SMILES)
> 5.00	COc1ccccc1-c1cc2cc[nH]c2cc1NC(=O)c1c[nH]c2ccccc2c1=O [Compound 237, N-[5-(2-methoxyphenyl)-1H-indol-6-yl]-4-oxo-1H-quinoline-3-carboxamide]

same assay, conditions: Table 3; assay not given; read-out: % Activity (% Efficacy, relative efficacy)

Emax	Structure (SMILES)
25 to 100%	O=C(Nc1ccc2cc[nH]c2c1)c1cnc2cc(C(F)(F)F)cc(C(F)(F)F)c2c1O [Compound 130, 4-hydroxy-N-(1H-indol-6-yl)-5,7-bis(trifluoromethyl)quinoline-3-carboxamide]
25 to 100%	O=C(Nc1ccc(C(F)(F)F)cc1Cl)c1c[nH]c2ccccc2c1=O [Compound 532, N-[2-chloro-4-(trifluoromethyl)phenyl]-4-oxo-1H-quinoline-3-carboxamide]
< 25%	CC(CO)(CO)c1ccc(NC(=O)c2c[nH]c3ccc(F)cc3c2=O)cc1 [Compound 627, 6-fluoro-N-[4-[2-hydroxy-1-(hydroxymethyl)-1-methyl-ethyl]phenyl]-4-oxo-1H-quinoline-3-carboxamide]
25 to 100%	O=C(Nc1ccc(N2CC[C@H](O)C2)cc1C(F)(F)F)c1c[nH]c2ccccc2c1=O [Compound 655, (S)-N-(4-(3-hydroxypyrrolidin-1-yl)-2-(trifluoromethyl)phenyl)-4-oxo-1,4-dihydroquinoline-3-carboxamide]
25 to 100%	CC(C)(C)c1cc(F)c(NC(=O)c2c[nH]c3cccc(O)c3c2=O)cc1O [Compound 407, N-(2-fluoro-5-hydroxy-4-tert-butyl-phenyl)-5-hydroxy-4-oxo-1H-quinoline-3-carboxamide]
25 to 100%	CCOC(=O)c1c(NC(=O)c2c[nH]c3ccccc3c2=O)ccc2cc[nH]c12 [Compound 412, 6-[(4-oxo-1H-quinolin-3-yl)carbonylamino]-1H-indole-7-carboxylic acid ethyl ester]
> 100%	COc1ccc(C(C)C)cc1-c1ccccc1NC(=O)c1c[nH]c2ccccc2c1=O [Compound 59, N-[2-(5-isopropyl-2-methoxy-phenyl)phenyl]-4-oxo-1H-quinoline-3-carboxamide]
25 to 100%	COc1ncccc1NC(=O)c1c[nH]c2ccccc2c1=O [Compound 15, N-(2-methoxy-3-pyridyl)-4-oxo-1H-quinoline-3-carboxamide]
25 to 100%	COC(=O)Nc1cc(NC(=O)c2c[nH]c3ccccc3c2=O)ccc1C(C)C [Compound 30, [2-isopropyl-5-[(4-oxo-1H-quinolin-3-yl)carbonylamino]phenyl]aminoformic acid methyl ester]
25 to 100%	CN(c1ccc(F)cc1)S(=O)(=O)c1ccc2[nH]cc(C(=O)Nc3cc4[nH]ccc4cc3C(C)(C)C)c(=O)c2c1 [Compound 406, 6-[(4-fluorophenyl)-methyl-sulfamoyl]-4-oxo-N-(5-tert-butyl-1H-indol-6-yl)-1H-quinoline-3-carboxamide]
25 to 100%	CC(=O)Nc1ccc(C(C)(C)C)c(NC(=O)c2c[nH]c3ccccc3c2=O)c1 [Compound 316, N-(5-acetylamino-2-tert-butyl-phenyl)-4-oxo-1H-quinoline-3-carboxamide]
25 to 100%	CN(c1ccc(F)cc1)S(=O)(=O)c1ccc2[nH]cc(C(=O)Nc3cc(O)c(C(C)(C)C)cc3C(C)(C)C)c(=O)c2c1 [Compound 137, 6-[(4-fluorophenyl)-methyl-sulfamoyl]-N-(5-hydroxy-2,4-ditert-butyl-phenyl)-4-oxo-1H-quinoline-3-carboxamide]
25 to 100%	COc1ccccc1-c1cc2cc[nH]c2cc1NC(=O)c1c[nH]c2ccccc2c1=O [Compound 237, N-[5-(2-methoxyphenyl)-1H-indol-6-yl]-4-oxo-1H-quinoline-3-carboxamide]
25 to 100%	O=C(Nc1cc(O)c(C2CCCC2)cc1C#CCO)c1c[nH]c2ccccc2c1=O [Compound 512, N-[4-cyclopentyl-5-hydroxy-2-(3-hydroxyprop-1-ynyl)phenyl]-4-oxo-1H-quinoline-3-carboxamide]
25 to 100%	CCOc1ccc(OCC)c(NC(=O)c2c[nH]c3ccccc3c2=O)c1 [Compound 264, N-(2,5-diethoxyphenyl)-4-oxo-1H-quinoline-3-carboxamide]
25 to 100%	COc1ccc(NC(=O)c2c[nH]c3ccccc3c2=O)cc1N [Compound 378, N-(3-amino-4-methoxy-phenyl)-4-oxo-1H-quinoline-3-carboxamide]
